In PubChem BioAssay AID250 (DTP/NCI, 2004):
“And” between values parts separate entries of the source, which are not always exact repeats. Equal values may be shown once. Toxic doses and inconclusive results are not listed.

System: BDF1 mice, L1210 leukemia sc, survival T/C
Test: NCI In Vivo Anticancer Drug Screen. Data for tumor model L1210 Leukemia (subcutaneous) in B6D2F1 (BDF1) mice
Settings: endpoint: median survival time, higher = longer survival
Outline: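 Read-out: T/C ratio, i.e. survival or tumor size in treated mice over that in vehicle-treated controls, from mice bearing transplantable tumors.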

CC(CN1CC(=O)NC(=O)C1)N1CC(=O)NC(=O)C1 (stereo unspecified)
T/C (dose: 3.12 mg/kg/injection, schedule: Q03HX024 (ip), vehicle: other): 115 % of control | T/C (dose: 3.12 mg/kg/injection, schedule: Q03HX024 (ip), vehicle: steriod suspending solution): 111 % of control | T/C (dose: 6.25 mg/kg/injection, schedule: Q03HX024 (ip), vehicle: other): 156 % of control | T/C (dose: 6.25 mg/kg/injection, schedule: Q03HX024 (ip), vehicle: steriod suspending solution): 155 % of control | T/C (dose: 8.4 mg/kg/injection, schedule: Q03HX024 (sc), vehicle: Klucel (hydroxypropylcellulose) (HPC)): 150 % of control | T/C (dose: 10.0 mg/kg/injection, schedule: Q03HX024 (sc), vehicle: Klucel (hydroxypropylcellulose) (HPC)): 184 % of control and 185 % of control | T/C (dose: 12.5 mg/kg/injection, schedule: Q01DX009 (sc), vehicle: steriod suspending solution): 105 % of control | T/C (dose: 12.5 mg/kg/injection, schedule: Q03HX024 (ip), vehicle: other): 191 % of control | T/C (dose: 12.5 mg/kg/injection, schedule: Q03HX024 (ip), vehicle: steriod suspending solution): 161 % of control | T/C (dose: 14.0 mg/kg/injection, schedule: Q03HX024 (sc), vehicle: Klucel (hydroxypropylcellulose) (HPC)): 180 % of control | T/C (dose: 16.0 mg/kg/injection, schedule: Q01DX009 (ip), vehicle: Klucel (hydroxypropylcellulose) (HPC)): 109 % of control and 124 % of control | T/C (dose: 16.0 mg/kg/injection, schedule: Q01DX009 (ip), vehicle: other): 119 % of control | T/C (dose: 20.0 mg/kg/injection, schedule: Q03HX024 (sc), vehicle: Klucel (hydroxypropylcellulose) (HPC)): 194 % of control and 195 % of control | T/C (dose: 23.0 mg/kg/injection, schedule: Q03HX024 (sc), vehicle: Klucel (hydroxypropylcellulose) (HPC)): 200 % of control | T/C (dose: 25.0 mg/kg/injection, schedule: Q01DX009 (sc), vehicle: steriod suspending solution): 120 % of control | T/C (dose: 25.0 mg/kg/injection, schedule: Q03HX024 (ip), vehicle: other): 160 % of control | T/C (dose: 25.0 mg/kg/injection, schedule: Q03HX024 (ip), vehicle: steriod suspending solution): 155 % of control | T/C (dose: 39.0 mg/kg/injection, schedule: Q03HX024 (sc), vehicle: Klucel (hydroxypropylcellulose) (HPC)): 205 % of control | T/C (dose: 40.0 mg/kg/injection, schedule: Q03HX024 (sc), vehicle: Klucel (hydroxypropylcellulose) (HPC)): 199 % of control and 200 % of control | T/C (dose: 50.0 mg/kg/injection, schedule: Q01DX009 (ip), vehicle: steriod suspending solution): 150 % of control | T/C (dose: 50.0 mg/kg/injection, schedule: Q01DX009 (sc), vehicle: steriod suspending solution): 155 % of control | T/C (dose: 50.0 mg/kg/injection, schedule: Q04DX003 (sc), vehicle: Klucel (hydroxypropylcellulose) (HPC)): 110 % of control and 112 % of control | T/C (dose: 64.0 mg/kg/injection, schedule: Q01DX009 (ip), vehicle: Klucel (hydroxypropylcellulose) (HPC)): 154 % of control | T/C (dose: 65.0 mg/kg/injection, schedule: Q01DX009 (sc), vehicle: Klucel (hydroxypropylcellulose) (HPC)): 170 % of control | T/C (dose: 65.0 mg/kg/injection, schedule: Q03HX024 (sc), vehicle: Klucel (hydroxypropylcellulose) (HPC)): 205 % of control | T/C (dose: 80.0 mg/kg/injection, schedule: Q03HX024 (sc), vehicle: Klucel (hydroxypropylcellulose) (HPC)): 118 % of control and 120 % of control | T/C (dose: 100.0 mg/kg/injection, schedule: Q01DX009 (ip), vehicle: steriod suspending solution): 110 % of control | T/C (dose: 100.0 mg/kg/injection, schedule: Q01DX009 (sc), vehicle: steriod suspending solution): 150 % of control and 175 % of control | T/C (dose: 100.0 mg/kg/injection, schedule: Q04DX003 (ip), vehicle: other): 117 % of control | T/C (dose: 100.0 mg/kg/injection, schedule: Q04DX003 (ip), vehicle: steriod suspending solution): 120 % of control | T/C (dose: 100.0 mg/kg/injection, schedule: Q04DX003 (sc), vehicle: steriod suspending solution): 100 % of control and 120 % of control | T/C (dose: 108.0 mg/kg/injection, schedule: Q01DX009 (sc), vehicle: Klucel (hydroxypropylcellulose) (HPC)): 160 % of control | T/C (dose: 108.0 mg/kg/injection, schedule: Q04DX003 (sc), vehicle: Klucel (hydroxypropylcellulose) (HPC)): 118 % of control and 122 % of control | T/C (dose: 200.0 mg/kg/injection, schedule: Q01DX009 (ip), vehicle: steriod suspending solution): 90 % of control | T/C (dose: 200.0 mg/kg/injection, schedule: Q01DX009 (sc), vehicle: steriod suspending solution): 90 % of control | T/C (dose: 200.0 mg/kg/injection, schedule: Q04DX003 (ip), vehicle: Klucel (hydroxypropylcellulose) (HPC)): 150 % of control | T/C (dose: 200.0 mg/kg/injection, schedule: Q04DX003 (ip), vehicle: other): 175 % of control | T/C (dose: 200.0 mg/kg/injection, schedule: Q04DX003 (ip), vehicle: steriod suspending solution): 150 % of control and 175 % of control | T/C (dose: 200.0 mg/kg/injection, schedule: Q04DX003 (sc), vehicle: steriod suspending solution): 100 % of control | T/C (dose: 256.0 mg/kg/injection, schedule: Q01DX009 (ip), vehicle: Klucel (hydroxypropylcellulose) (HPC)): 116 % of control and 121 % of control | T/C (dose: 256.0 mg/kg/injection, schedule: Q01DX009 (ip), vehicle: other): 105 % of control | T/C (dose: 300.0 mg/kg/injection, schedule: Q01DX009 (sc), vehicle: Klucel (hydroxypropylcellulose) (HPC)): 120 % of control | T/C (dose: 300.0 mg/kg/injection, schedule: Q04DX003 (sc), vehicle: Klucel (hydroxypropylcellulose) (HPC)): 160 % of control and 169 % of control and 177 % of control | T/C (dose: 400.0 mg/kg/injection, schedule: Q04DX003 (ip), vehicle: Klucel (hydroxypropylcellulose) (HPC)): 206 % of control | T/C (dose: 400.0 mg/kg/injection, schedule: Q04DX003 (ip), vehicle: other): 156 % of control and 207 % of control | T/C (dose: 400.0 mg/kg/injection, schedule: Q04DX003 (ip), vehicle: steriod suspending solution): 155 % of control and 185 % of control and 205 % of control | T/C (dose: 500.0 mg/kg/injection, schedule: Q01DX009 (sc), vehicle: Klucel (hydroxypropylcellulose) (HPC)): 100 % of control | T/C (dose: 512.0 mg/kg/injection, schedule: Q01DX009 (ip), vehicle: Klucel (hydroxypropylcellulose) (HPC)): 107 % of control | T/C (dose: 800.0 mg/kg/injection, schedule: Q04DX003 (ip), vehicle: Klucel (hydroxypropylcellulose) (HPC)): 112 % of control | T/C (dose: 800.0 mg/kg/injection, schedule: Q04DX003 (ip), vehicle: other): 111 % of control and 118 % of control | T/C (dose: 800.0 mg/kg/injection, schedule: Q04DX003 (ip), vehicle: steriod suspending solution): 100 % of control and 110 % of control and 120 % of control | T/C (dose: 800.0 mg/kg/injection, schedule: Q04DX003 (sc), vehicle: steriod suspending solution): 110 % of control and 120 % of control | T/C (dose: 833.0 mg/kg/injection, schedule: Q04DX003 (oral), vehicle: Klucel (hydroxypropylcellulose) (HPC)): 161 % of control and 168 % of control | T/C (dose: 833.0 mg/kg/injection, schedule: Q04DX003 (sc), vehicle: Klucel (hydroxypropylcellulose) (HPC)): 107 % of control and 111 % of control | T/C (dose: 840.0 mg/kg/injection, schedule: Q04DX003 (oral), vehicle: Klucel (hydroxypropylcellulose) (HPC)): 186 % of control and 188 % of control | T/C (dose: 1388.0 mg/kg/injection, schedule: Q04DX003 (sc), vehicle: Klucel (hydroxypropylcellulose) (HPC)): 100 % of control
